From US10189845B2, “4,6-substituted-pyrazolo[1,5-a]pyrazines as janus kinase inhibitors” (ARRAY BIOPHARMA INC., priority 2014, dated 2019) come the findings set out here.

Common to all, as to assay type: biochemical
For one assay, the target named is Human Tyk2 kinase domain (Homo sapiens (Human), UniProt P29597). In words: Tyk2 Inhibition Assay (Example A, Omnia kinase fluorescence peptide substrate assay). To be noted: TYK2 Enzyme IC50 1 mM ATP, averaged IC50 ranges. The gist of the method: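 IC50 values come from a 4-parameter logistic fit of percent-of-control data, with compounds at 2% final DMSO. Reactions held 1 nM His-tag-cleaved Tyk2 (aa 886–1187), 8 μM Omnia Y12 peptide and 1 mM ATP in pH 7.4 HEPES buffer with 10 mM MgCl2, Triton X-100 and DTT. Sox fluorescence (360/485 nm) was monitored kinetically over 45 min.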

In a further assay the target is JAK3 (Homo sapiens (Human), UniProt P52333). Nature of the assay: JAK3 Inhibition Assay (Example D, Omnia kinase fluorescence peptide substrate assay). The method, boiled down: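 Omnia Sox-peptide kinetic read (ex 360 nm, em 485 nm, every 50 s over 45 min) tracked phosphorylation of 10 μM Y7 peptide by 2 nM recombinant JAK3 at 1 mM ATP. Buffer: 25 mM HEPES pH 7.4, 10 mM MgCl2, 0.01% Triton X-100, 1 mM DTT, with 2% DMSO final.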

In another assay the target is JAK2 (Homo sapiens (Human), UniProt O60674). Nature of the assay: JAK2 Inhibition Assay (Example C, Omnia kinase fluorescence peptide substrate assay). The note with it: JAK2 Enzyme IC50 1 mM ATP, averaged IC50 ranges. The gist of the method: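 Kinetic fluorescence read of Omnia Y7 peptide (10 μM) phosphorylation, ex 360/em 485 nm every 50 s over 45 min, by 4 nM JAK2 at 1 mM ATP. Buffer 25 mM HEPES pH 7.4, 10 mM MgCl2, 0.01% Triton X-100, 1 mM DTT; final DMSO 2%. Percent-of-control values fitted by 4-parameter logistic for IC50.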

The next assay deals with JAK1 (Homo sapiens (Human), UniProt P23458). In words: JAK1 Inhibition Assay (Example B, Omnia kinase fluorescence peptide substrate assay). The gist of the method:
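Kinetic fluorescence read (360 nm excitation, 485 nm emission, every 50 s over 45 min) of Omnia Y12 peptide (8 μM) phosphorylation by 12.5 nM human JAK1 at 1 mM ATP. Buffer: HEPES pH 7.4, MgCl2, Triton X-100, DTT; 2% DMSO. IC50 = concentration giving 50 POC on logistic curve.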

[1] abbreviates: JAK1 Enzyme IC50 1 mM ATP, 1 mM ATP, averaged IC50 ranges.

The term pIC50 denotes the IC50 on a negative log10 scale, so that one unit is a factor of ten. A higher pIC50 goes with a small IC50.

SMILES strings stand for the structures. pIC50: −log10 of the molar value. Counter-ions that a name gives are not always drawn. Like-named read-outs stand apart in the source and are kept apart here.

Sequence of JAK3 (P52333 whole entry): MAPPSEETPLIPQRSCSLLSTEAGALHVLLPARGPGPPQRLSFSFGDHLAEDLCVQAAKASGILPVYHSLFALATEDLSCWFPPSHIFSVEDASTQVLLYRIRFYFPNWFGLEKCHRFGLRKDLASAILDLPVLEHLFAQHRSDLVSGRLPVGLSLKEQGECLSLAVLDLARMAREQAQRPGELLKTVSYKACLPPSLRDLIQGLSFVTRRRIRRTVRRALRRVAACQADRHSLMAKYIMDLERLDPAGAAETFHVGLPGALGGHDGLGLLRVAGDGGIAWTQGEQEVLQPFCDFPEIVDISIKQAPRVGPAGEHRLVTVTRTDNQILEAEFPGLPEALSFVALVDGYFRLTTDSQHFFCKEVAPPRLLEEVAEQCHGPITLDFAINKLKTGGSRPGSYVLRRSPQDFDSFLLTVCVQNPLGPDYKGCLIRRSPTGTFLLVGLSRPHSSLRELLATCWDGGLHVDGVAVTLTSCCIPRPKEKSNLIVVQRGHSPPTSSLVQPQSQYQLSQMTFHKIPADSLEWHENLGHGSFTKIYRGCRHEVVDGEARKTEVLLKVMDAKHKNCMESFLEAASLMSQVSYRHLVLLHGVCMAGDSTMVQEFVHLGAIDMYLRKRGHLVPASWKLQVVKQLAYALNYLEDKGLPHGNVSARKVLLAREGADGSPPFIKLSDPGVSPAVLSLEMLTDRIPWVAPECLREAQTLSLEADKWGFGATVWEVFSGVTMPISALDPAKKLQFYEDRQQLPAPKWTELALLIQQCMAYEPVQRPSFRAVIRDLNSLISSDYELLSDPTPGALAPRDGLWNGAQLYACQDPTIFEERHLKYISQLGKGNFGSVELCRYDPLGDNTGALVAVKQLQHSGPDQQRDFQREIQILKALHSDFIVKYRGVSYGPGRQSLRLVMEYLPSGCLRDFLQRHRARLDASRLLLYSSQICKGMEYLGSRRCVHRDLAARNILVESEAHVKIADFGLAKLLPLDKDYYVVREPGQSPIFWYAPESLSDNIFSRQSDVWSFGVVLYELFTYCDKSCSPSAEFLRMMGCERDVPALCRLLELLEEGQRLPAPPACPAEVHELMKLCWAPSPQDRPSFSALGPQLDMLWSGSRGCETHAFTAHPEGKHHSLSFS
Sequence of JAK2 (O60674 whole entry): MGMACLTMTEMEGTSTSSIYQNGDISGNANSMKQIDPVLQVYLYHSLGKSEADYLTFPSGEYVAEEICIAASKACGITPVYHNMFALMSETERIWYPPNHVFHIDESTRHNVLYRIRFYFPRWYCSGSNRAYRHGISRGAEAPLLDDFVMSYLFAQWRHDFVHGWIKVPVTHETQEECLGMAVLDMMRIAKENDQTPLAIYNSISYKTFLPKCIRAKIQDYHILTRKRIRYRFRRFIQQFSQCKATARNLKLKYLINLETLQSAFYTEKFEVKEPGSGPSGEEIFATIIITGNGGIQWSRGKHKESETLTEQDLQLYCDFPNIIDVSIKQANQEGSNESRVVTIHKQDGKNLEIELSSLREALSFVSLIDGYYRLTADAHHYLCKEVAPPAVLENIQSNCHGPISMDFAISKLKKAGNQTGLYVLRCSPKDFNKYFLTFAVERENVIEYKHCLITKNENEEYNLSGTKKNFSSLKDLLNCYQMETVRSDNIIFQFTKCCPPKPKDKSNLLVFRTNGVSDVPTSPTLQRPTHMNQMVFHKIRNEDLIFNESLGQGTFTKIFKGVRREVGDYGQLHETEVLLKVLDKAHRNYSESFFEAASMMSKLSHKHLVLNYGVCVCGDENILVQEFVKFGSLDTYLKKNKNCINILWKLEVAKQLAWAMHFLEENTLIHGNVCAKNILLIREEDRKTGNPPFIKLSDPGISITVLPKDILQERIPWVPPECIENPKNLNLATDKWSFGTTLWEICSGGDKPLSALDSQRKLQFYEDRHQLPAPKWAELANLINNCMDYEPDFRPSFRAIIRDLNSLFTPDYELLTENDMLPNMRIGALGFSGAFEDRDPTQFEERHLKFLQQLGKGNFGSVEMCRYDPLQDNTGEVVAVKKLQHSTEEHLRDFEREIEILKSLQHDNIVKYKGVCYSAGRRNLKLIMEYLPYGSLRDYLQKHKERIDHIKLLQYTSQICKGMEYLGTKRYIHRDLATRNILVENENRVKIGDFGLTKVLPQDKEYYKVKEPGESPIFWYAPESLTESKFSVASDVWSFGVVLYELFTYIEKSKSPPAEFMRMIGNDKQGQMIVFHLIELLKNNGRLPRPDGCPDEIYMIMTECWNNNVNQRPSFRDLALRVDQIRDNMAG
Sequence of Human Tyk2 kinase domain (P29597 886-1187): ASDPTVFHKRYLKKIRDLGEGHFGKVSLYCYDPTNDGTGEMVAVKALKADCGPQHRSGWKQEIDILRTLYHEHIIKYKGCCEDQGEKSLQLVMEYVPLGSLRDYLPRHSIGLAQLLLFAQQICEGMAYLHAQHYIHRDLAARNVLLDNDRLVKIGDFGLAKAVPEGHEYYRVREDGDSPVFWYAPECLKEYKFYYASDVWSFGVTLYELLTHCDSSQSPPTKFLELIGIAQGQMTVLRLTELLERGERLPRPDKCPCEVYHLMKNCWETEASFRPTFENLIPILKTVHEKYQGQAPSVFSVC
Sequence of JAK1 (P23458 whole entry): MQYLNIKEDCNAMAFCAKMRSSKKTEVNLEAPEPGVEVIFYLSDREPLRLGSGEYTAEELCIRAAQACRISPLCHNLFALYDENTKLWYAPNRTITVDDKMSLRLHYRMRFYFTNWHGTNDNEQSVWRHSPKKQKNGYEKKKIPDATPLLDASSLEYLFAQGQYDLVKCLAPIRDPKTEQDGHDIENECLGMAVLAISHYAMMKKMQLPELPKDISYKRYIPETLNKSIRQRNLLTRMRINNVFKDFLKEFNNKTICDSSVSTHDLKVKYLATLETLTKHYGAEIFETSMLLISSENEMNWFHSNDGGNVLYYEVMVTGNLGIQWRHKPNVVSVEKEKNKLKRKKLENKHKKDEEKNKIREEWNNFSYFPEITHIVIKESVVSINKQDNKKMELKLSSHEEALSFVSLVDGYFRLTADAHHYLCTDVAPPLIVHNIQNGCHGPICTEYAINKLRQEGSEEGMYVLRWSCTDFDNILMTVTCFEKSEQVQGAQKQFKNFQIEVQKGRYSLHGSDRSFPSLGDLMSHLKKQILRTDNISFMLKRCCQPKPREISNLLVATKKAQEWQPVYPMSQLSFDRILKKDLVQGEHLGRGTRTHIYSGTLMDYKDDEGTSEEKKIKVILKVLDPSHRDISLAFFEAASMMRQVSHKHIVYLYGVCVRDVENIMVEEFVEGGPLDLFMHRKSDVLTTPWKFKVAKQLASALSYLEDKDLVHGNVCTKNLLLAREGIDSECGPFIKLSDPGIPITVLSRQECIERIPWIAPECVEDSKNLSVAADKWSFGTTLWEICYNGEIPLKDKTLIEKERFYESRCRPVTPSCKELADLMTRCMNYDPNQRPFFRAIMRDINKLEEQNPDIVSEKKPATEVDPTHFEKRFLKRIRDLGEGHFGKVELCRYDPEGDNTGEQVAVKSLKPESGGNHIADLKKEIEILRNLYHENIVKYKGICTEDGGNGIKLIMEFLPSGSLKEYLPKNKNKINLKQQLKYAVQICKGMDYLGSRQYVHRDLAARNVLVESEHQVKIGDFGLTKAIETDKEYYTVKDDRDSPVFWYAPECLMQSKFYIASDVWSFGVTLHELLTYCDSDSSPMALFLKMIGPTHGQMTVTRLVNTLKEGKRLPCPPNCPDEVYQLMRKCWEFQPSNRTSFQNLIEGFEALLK

Turning to `CCC(CC)n1cc(-c2nc(-c3cnn([C@@H]4CCNC[C@H]4O)c3)cn3nccc23)cn1` [Example 188, (3R,4R)-4-(4-(4-(1-(pentan-3-yl)-1H-pyrazol-4-yl)pyrazolo[1,5-a]pyrazin-6-yl)-1H-pyrazol-1-yl)piperidin-3-ol], the pIC50 is 7.00 to 8.00 against Human Tyk2 kinase domain, 5.00 to 6.00 on JAK3, 7.00 to 8.00 on JAK2 and 5.00 to 6.00 against JAK1.
On to `CCC(CC)n1cc(-c2nc(-c3cnn([C@@H]4CCC[C@@H]4O)c3)cn3nccc23)cn1` [Example 189, (1S,2R)-2-(4-(4-(1-(pentan-3-yl)-1H-pyrazol-4-yl)pyrazolo[1,5-a]pyrazin-6-yl)-1H-pyrazol-1-yl)cyclopentanol], for which the pIC50 against Human Tyk2 kinase domain is 7.00 to 8.00; at JAK3 it was 5.00 to 6.00; against JAK2, 7.00 to 8.00; against JAK1 (setting [1]), 5.00 to 6.00.
As for `CCC(CC)n1cc(-c2nc(-c3cnn(CC(C)(C)CO)c3)cn3nccc23)cn1` [Example 191, 2,2-dimethyl-3-(4-(4-(1-(pentan-3-yl)-1H-pyrazol-4-yl)pyrazolo[1,5-a]pyrazin-6-yl)-1H-pyrazol-1-yl)propan-1-ol], the pIC50 on Human Tyk2 kinase domain is 7.00 to 8.00; against JAK3, 5.00 to 6.00; against JAK2 it was 7.00 to 8.00; against JAK1 (setting [1]), 7.00 to 8.00.
Take `CCC(CC)n1cc(-c2nc(-c3cnn(CC4(CO)CC4)c3)cn3nccc23)cn1` [Example 192, (1-((4-(4-(1-(pentan-3-yl)-1H-pyrazol-4-yl)pyrazolo[1,5-a]pyrazin-6-yl)-1H-pyrazol-1-yl)methyl)cyclopropyl)methanol]: the pIC50 at Human Tyk2 kinase domain is 7.00 to 8.00; at JAK3, 5.00 to 6.00; on JAK2, 7.00 to 8.00; on JAK1 (setting [1]) it was 7.00 to 8.00.
With `CCC(n1cc(-c2nc(-c3cnn(C[C@@H](O)CO)c3)cn3nccc23)cn1)C(F)(F)F` (stereo partly drawn) [Example 193, (2R)-3-(4-(4-(1-(1,1,1-trifluorobutan-2-yl)-1H-pyrazol-4-yl)pyrazol[1,5-a]pyrazin-6-yl)-1H-pyrazol-1-yl)propane-1,2-diol], the pIC50 against Human Tyk2 kinase domain is 6.00 to 7.00; on JAK3, 5.00 to 6.00; at JAK2 it was 6.00 to 7.00; on JAK1 (setting [1]), 5.00 to 6.00.
As to `C[C@H](CC(F)(F)F)n1cc(-c2nc(-c3cnn(C[C@@H](O)CO)c3)cn3nccc23)cn1` [Example 194, (R)-3-(4-(4-(1-((R)-4,4,4-trifluorobutan-2-yl)-1H-pyrazol-4-yl)pyrazolo[1,5-a]pyrazin-6-yl)-1H-pyrazol-1-yl)propane-1,2-diol hydrochloride], the pIC50 at Human Tyk2 kinase domain was 6.00 to 7.00; against JAK3, 5.00 to 6.00; against JAK2 it was 6.00 to 7.00; at JAK1 (setting [1]), 5.00 to 6.00.
`C[C@@H](CC(F)(F)F)n1cc(-c2nc(-c3cnn(C[C@@H](O)CO)c3)cn3nccc23)cn1` [Example 195, (R)-3-(4-(4-(1-((S)-4,4,4-trifluorobutan-2-yl)-1H-pyrazol-4-yl)pyrazolo[1,5-a]pyrazin-6-yl)-1H-pyrazol-1-yl)propane-1,2-diol hydrochloride]: the pIC50 against Human Tyk2 kinase domain is 6.00 to 7.00; at JAK3 it was 5.00 to 6.00; against JAK2, 6.00 to 7.00; against JAK1 (setting [1]), 5.00 to 6.00.
Take `CC[C@H](n1cc(-c2nc(-c3cnn(C[C@@H](O)CO)c3)cn3nccc23)cn1)C(C)(F)F` [Example 198, (R)-3-(4-(4-(1-((S)-2,2-difluoropentan-3-yl)-1H-pyrazol-4-yl)pyrazolo[1,5-a]pyrazin-6-yl)-1H-pyrazol-1-yl)propane-1,2-diol]: the pIC50 against Human Tyk2 kinase domain was 6.00 to 7.00; on JAK3, 5.00 to 6.00; at JAK2, 6.00 to 7.00; at JAK1 (setting [1]), 5.00 to 6.00.
As to `CC[C@@H](CC1CC1)n1cc(-c2nc(-c3cnn(C[C@@H](O)CO)c3)cn3nccc23)cn1` [Example 205, (R)-3-(4-(4-(1-((S)-1-cyclopropylbutan-2-yl)-1H-pyrazol-4-yl)pyrazolo[1,5-a]pyrazin-6-yl)-1H-pyrazol-1-yl)propane-1,2-diol], the pIC50 against Human Tyk2 kinase domain is 7.00 to 8.00; on JAK3 it was 5.00 to 6.00; against JAK2, 7.00 to 8.00; on JAK1 (setting [1]) it was 6.00 to 7.00.
For `CC[C@H](CC(F)(F)F)n1cc(-c2nc(-c3cnn(C(CO)CO)c3)cn3nccc23)cn1` [Example 211, (R)-2-(4-(4-(1-(1,1,1-trifluoropentan-3-yl)-1H-pyrazol-4-yl)pyrazolo[1,5-a]pyrazin-6-yl)-1H-pyrazol-1-yl)propane-1,3-diol], the pIC50 at Human Tyk2 kinase domain is 7.00 to 8.00; against JAK3, 5.00 to 6.00; on JAK2, 7.00 to 8.00; against JAK1, 6.00 to 7.00.
Turning to `CC[C@H](C1CC1)n1cc(-c2nc(-c3cnn(C(CO)CO)c3)cn3nccc23)cn1` [Example 215, (R)-2-(4-(4-(1-(1-cyclopropylpropyl)-1H-pyrazol-4-yl)pyrazolo[1,5-a]pyrazin-6-yl)-1H-pyrazol-1-yl)propane-1,3-diol], the pIC50 at Human Tyk2 kinase domain was 7.00 to 8.00; on JAK3, 5.00 to 6.00; against JAK2, 7.00 to 8.00; against JAK1 (setting [1]) it was 6.00 to 7.00.
Turning to `OC[C@H](O)Cn1cc(-c2cn3nccc3c(-c3cnn(C(C4CC4)C4CC4)c3)n2)cn1` [Example 216, (R)-3-(4-(4-(1-(dicyclopropylmethyl)-1H-pyrazol-4-yl)pyrazolo[1,5-a]pyrazin-6-yl)-1H-pyrazol-1-yl)propane-1,2-diol], the pIC50 against Human Tyk2 kinase domain is 6.00 to 7.00; against JAK3, 5.00 to 6.00; on JAK2 it was 6.00 to 7.00; against JAK1, 5.00 to 6.00.
Consider `C[C@@H]1CC[C@@H]1n1cc(-c2nc(-c3cnn(C[C@@H](O)CO)c3)cn3nccc23)cn1` [Example 217, (R)-3-(4-(4-(1-(cis-2-methylcyclobutyl)-1H-pyrazol-4-yl)pyrazolo[1,5-a]pyrazin-6-yl)-1H-pyrazol-1-yl)propane-1,2-diol], for which the pIC50 at Human Tyk2 kinase domain was 6.00 to 7.00; against JAK3, 5.00 to 6.00; on JAK2, 6.00 to 7.00; against JAK1 (setting [1]), 5.00 to 6.00.
`CC[C@H](C1CC1)n1cc(-c2nc(-c3cnn(C[C@H](C)O)c3)cn3nccc23)cn1` [Example 218, (S)-1-(4-(4-(1-((R)-1-cyclopropylpropyl)-1H-pyrazol-4-yl)pyrazolo[1,5-a]pyrazin-6-yl)-1H-pyrazol-1-yl)propan-2-ol]: the pIC50 was 7.00 to 8.00 at Human Tyk2 kinase domain, 5.00 to 6.00 on JAK3, 7.00 to 8.00 against JAK2 and 6.00 to 7.00 against JAK1.
Turning to `CCC(CC)n1cc(-c2nc(-c3cnn(C[C@H]4CNCCO4)c3)cn3nccc23)cn1` [compound 128, (R)-2-((4-(4-(1-(pentan-3-yl)-1H-pyrazol-4-yl)pyrazolo[1,5-a]pyrazin-6-yl)-1H-pyrazol-1-yl)methyl)morpholine], the pIC50 on Human Tyk2 kinase domain was 6.00 to 7.00; on JAK3, 5.00 to 6.00; at JAK2 it was 6.00 to 7.00; against JAK1 it was 5.00 to 6.00.
As to `CCC(CC)n1cc(-c2nc(-c3cnn([C@H]4C[C@@H](CO)C4)c3)cn3nccc23)cn1` [compound 166, (cis-3-(4-(4-(1-(pentan-3-yl)-1H-pyrazol-4-yl)pyrazolo[1,5-a]pyrazin-6-yl)-1H-pyrazol-1-yl)cyclobutyl)methanol], the pIC50 on Human Tyk2 kinase domain is 7.00 to 8.00; on JAK3, 5.00 to 6.00; at JAK2, 7.00 to 8.00; at JAK1, 6.00 to 7.00.
For the molecule `CCC(CC)n1cc(-c2nc(-c3cnn(C4CN(C(=O)CO)C4)c3)cn3nccc23)cn1` [compound 174, 2-hydroxy-1-(3-(4-(4-(1-(pentan-3-yl)-1H-pyrazol-4-yl)pyrazolo[1,5-a]pyrazin-6-yl)-1H-pyrazol-1-yl)azetidin-1-yl)ethanone], the pIC50 was 7.00 to 8.00 against Human Tyk2 kinase domain, 5.00 to 6.00 on JAK3, 7.00 to 8.00 against JAK2 and 6.00 to 7.00 at JAK1.
